Test system: SEM cells
Assay: cell viability relative to DMSO control; higher = less cytotoxic
Details: 48 h
Method in brief: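 Three leukemia lines were tested: NOMO1 and SEM at 500 cells/well and P12-Ichikawa at 1000 cells/well. Each was adapted for at least four passages in each medium and seeded in 5 μl in 1536-well plates, and library compounds in DMSO were pin-dosed from 47 μM to 0.79 nM in 11 threefold steps. After 48 h at 37°C, CellTiter-Glo One luminescence was read. Viability is a percentage relative to DMSO wells on each plate, with cell-free wells as background.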

[1] = HPLM + 10% dialyzed FBS, 0.000781 µM
[2] = HPLM + 10% dialyzed FBS, 0.00234 µM
[3] = HPLM + 10% dialyzed FBS, 0.00702 µM
[4] = HPLM + 10% dialyzed FBS, 0.0211 µM
[5] = HPLM + 10% dialyzed FBS, 0.0632 µM
[6] = HPLM + 10% dialyzed FBS, 0.19 µM
[7] = HPLM + 10% dialyzed FBS, 0.569 µM
[8] = HPLM + 10% dialyzed FBS, 1.71 µM
[9] = HPLM + 10% dialyzed FBS, 5.12 µM
[10] = HPLM + 10% dialyzed FBS, 15.4 µM
[11] = HPLM + 10% dialyzed FBS, 46.1 µM
[12] = RPMI 5 mM glucose + 10% FBS, 0.000781 µM
[13] = RPMI 5 mM glucose + 10% FBS, 0.00234 µM
[14] = RPMI 5 mM glucose + 10% FBS, 0.00702 µM
[15] = RPMI 5 mM glucose + 10% FBS, 0.0211 µM
[16] = RPMI 5 mM glucose + 10% FBS, 0.0632 µM
[17] = RPMI 5 mM glucose + 10% FBS, 0.19 µM
[18] = RPMI 5 mM glucose + 10% FBS, 0.569 µM
[19] = RPMI 5 mM glucose + 10% FBS, 1.71 µM
[20] = RPMI 5 mM glucose + 10% FBS, 5.12 µM
[21] = RPMI 5 mM glucose + 10% FBS, 15.4 µM
[22] = RPMI 5 mM glucose + 10% FBS, 46.1 µM
[23] = RPMI 5 mM glucose + 10% dialyzed FBS, 0.000781 µM
[24] = RPMI 5 mM glucose + 10% dialyzed FBS, 0.00234 µM
[25] = RPMI 5 mM glucose + 10% dialyzed FBS, 0.00702 µM
[26] = RPMI 5 mM glucose + 10% dialyzed FBS, 0.0211 µM
[27] = RPMI 5 mM glucose + 10% dialyzed FBS, 0.0632 µM
[28] = RPMI 5 mM glucose + 10% dialyzed FBS, 0.19 µM
[29] = RPMI 5 mM glucose + 10% dialyzed FBS, 0.569 µM
[30] = RPMI 5 mM glucose + 10% dialyzed FBS, 1.71 µM
[31] = RPMI 5 mM glucose + 10% dialyzed FBS, 5.12 µM
[32] = RPMI 5 mM glucose + 10% dialyzed FBS, 15.4 µM
[33] = RPMI 5 mM glucose + 10% dialyzed FBS, 46.1 µM

Compound	cell viability [1] [%]	cell viability [2] [%]	cell viability [3] [%]	cell viability [4] [%]	cell viability [5] [%]	cell viability [6] [%]	cell viability [7] [%]	cell viability [8] [%]	cell viability [9] [%]	cell viability [10] [%]	cell viability [11] [%]	cell viability [12] [%]	cell viability [13] [%]	cell viability [14] [%]	cell viability [15] [%]	cell viability [16] [%]	cell viability [17] [%]	cell viability [18] [%]	cell viability [19] [%]	cell viability [20] [%]	cell viability [21] [%]	cell viability [22] [%]	cell viability [23] [%]	cell viability [24] [%]	cell viability [25] [%]	cell viability [26] [%]	cell viability [27] [%]	cell viability [28] [%]	cell viability [29] [%]	cell viability [30] [%]	cell viability [31] [%]	cell viability [32] [%]	cell viability [33] [%]
CN(c1nccc(=O)[nH]1)C1CCN(c2nc3ccccc3n2Cc2ccc(F)cc2)CC1	105	107	115	113	112	113	108	110	115	91	123	78.4	94.8	95	80	84.8	88.9	95.3	98.1	91.9	79.7	87.7	94.7	103	102	111	106	113	109	106	101	104	99.6
CC(C)C(=O)Nc1ncc(-c2cc(C(F)F)nn2-c2c(Cl)cccc2Cl)s1	109	117	120	121	130	121	133	146	124	114	48.7												102	114	140	130	124	132	138	142	134	126	57.5
COCCCOc1ccnc(C[S+]([O-])c2nc3ccccc3[nH]2)c1C (stereo not drawn)	97	102	110	115	107	113	127	109	102	109	94.3	72.3	72.1	71.3	82.6	73.1	79	78.6	76.7	65.6	81.3	75.2	97.9	110	91.3	107	98.8	103	109	100	115	108	108
CCCC1=N[N](C)C2=C1\N=C(/NC2=O)C3=CC(=CC=C3OCC)[S+]([O-])(=O)N4CCN(C)CC4	44.2	88.3	87.9	94.3	74	88.4	79.8	80.8	87	46.3	2.85	46.9	108	97.7	85.9	66.6	79.7	74	78	86.9	46.2	32.2	46.1	94.2	88.5	87.4	61.7	81.2	89.9	102	88.1	61.9	4.25
CCCCCCCCOc1ccccc1C(=O)Nc1ccc(C(=O)OCC[N+](C)(CC)CC)cc1	105	115	101	105	102	112	108	96.6	73.9	91.2	57.2	98.2	93	84.5	102	96.9	102	97	85.6	49.5	93.5	33.4	97	109	90.4	99.9	107	121	104	95.3	75.5	118	30.7
CCCC(CCC)C(=O)[O-]	87	88.8	110	97.5	92.3	91	103	112	93.3	100	88.6	104	103	121	123	115	102	125	125	115	116	135	74.3	105	95.3	124	89.7	96.8	107	118	107	98.1	108
CCNC(=O)Nc1ccc(-c2nc3c(c(N4CCOC[C@@H]4C)n2)CCN(C2COC2)C3)cc1	96.1	116	111	113	108	87.7	98.9	57.7	43.5	31.7	32.1	105	105	114	108	113	95.1	87.8	55.7	41.1	27	20.9	119	125	104	120	121	109	102	79.2	51.4	41	36.1
CCCCOc1ccc(CC(=O)NO)cc1	107	115	105	125	101	102	109	91.3	101	76.4	51.8	116	99.5	109	116	97	113	114	104	109	108	46.5	107	122	108	116	98.7	115	109	113	107	102	39.9
